# Data as given in patent US20220218659A1, “PI3K/LYN-ACLY Signaling Inhibition” (Institute For Cancer Research d/b/a The Research Institute …, priority 2019, published 2022).
# No end group written: not given here. *: point of attachment. Biotin = O=C1N[C@H]2[C@H](CS[C@H]2CCCCC(=O)*)N1
# Columns and labels:
# PI/PIP/PIP2 = assay: Lipidomic analysis of PI, PIP and PIP2 in HL-60 cells; format: cell-based; settings: 16 hours, 10% FBS in RPMI
# Method: Phosphoinositides from HL60 cells treated with PI3K and Lyn inhibitors were compared with those from control cells (0.1% DMSO in culture medium). HL60 cells were treated with PI3K inhibitors LY294002, BKM120 or the Lyn inhibitor Bafetinib for 16 hours followed by TCA precipitation and freezing at −80° C. TCA precipitates were spiked with 20 ng of two internal standards (PIP 37:4; PIP2 37:4) and subjected to lipid extraction as described below and analyzed via LC/MS/MS. TMS-diazomethane derivatized phospholipids including phosphatidyl inositol (PI), phosphatidylinositol phosphate (PIP) and phosphatidylinositol bisphosphate (PIP2) values were measured using UPLC/MS/MS MRM Mass Spectrometry. […] Phosphatidylinositol trisphosphate (PIP3) was also measured but levels were too low in these cells to be analyzed. The endogenous PIP3 is several orders of magnitude less abundant than PIP2 in cells. It is well established that the basal PIP3 level is often undetectable in cells due to its low quantity and short halflife. […]
# UPLC/MS: Dried, methylated cell extracts were suspended in 100 μl 100% methanol (LC-MS Optima grade, Fisher) prior to chromatographic separation and MS/MS. […] The effluent was monitored by a Waters XEVO TQ-S MS/MS in multiple reaction monitoring (MRM) in positive ion mode. […]
# [1] = test system: Histone H3 acetylation (H3K9ac); assay: Histone H3 (H3K9) acetylation by Western blot in HL-60 cells; format: cell-based; settings: 16 hours, 10% FBS in RPMI
# Method: Therefore, to evaluate the link between PI3K/Lyn and ACLY-mediated pathways in AML, HL-60 AML cell line were also used, in addition to primary patient-derived AML cells. HL-60 cell line was from American Type Culture Collection (ATCC). It was decided to use this particular HL-60 cell line for consistency herein since HL-60 cells express the active NRAS oncoprotein, similarly like the patient-derived AML cells (FIG. 7 and FIG. 8). HL-60 AML cell line was grown in RPMI 1640 medium supplemented with 10% fetal bovine serum, 2 mM 1-glutamine and 1% penicillin-streptomycin and maintained at 37° C. and 5% CO2. Cells were treated with the Lyn inhibitor (100 nM-1000 nM Bafetinib) or PI3K inhibitors (500 nM-2.5 μM LY294002 or 100 nM-2.0 μM BKM120) or vehicle (0.1% DMSO) in the presence of 10% FBS in RPMI media for 16 hours for Acetyl CoA measurement, phospholipid and histone acetylation analysis.
# HL-60 cell line was seeded at a concentration of 1×10^6/ml in 10 ml media onto 40 ml culture-flask and cultured for 16 hours in the presence of indicated concentration of LYN or PI3K inhibitors or DMSO (0.1% dimethyl sulfoxide). Cells were harvested and lysed in 1 ml of ice-cold Pierce IP lysis buffer (Pierce Inc.) in the presence of Proteinase and phosphatase inhibitor cocktail (Thermofisher) and sonicated for 20 seconds. Lysates were cleared by centrifugation at 12000 rpm in cold conditions on bench top centrifuge, and the supernatant was used for protein determination by BCA assay kit (Pierce Inc). Equivalent amounts of protein lysate were mixed with sodium dodecylsulfate (2×SDS) and boiled for 8 minutes. Samples were resolved by 4-12% gradient sodium dodecylsulfate-polyacrylamide gel electrophoresis (NOVEX; Invitrogen) and blotted onto nitrocellulose filters. Membranes were blocked for 1 hour in 0.1% Tween-20 and 5% bovine serum albumin. Primary antibodies for H3K9ac, histone H3, Lyn, ACLY and GAPDH were added to 5% BSA at concentrations provided by the vendor's instructions and incubated with membranes overnight at 4° C. before removing by washing. […]
# Acetyl-CoA = Acetyl-CoA measurement in HL-60 cells; format: cell-based; settings: 16 hours
# Method: HL-60 cells were cultured as above, treated with Bafetinib (500 nM), PI3K inhibitors (1 μM) for 16 hours. After treatment, cells were washed with medium and harvested for acetyl-CoA extraction from 5×10^6 cells per condition in triplicate, acetyl-CoA levels were measured using Pico-Probe Acetyl-CoA Fluorometric Assay kit (BioVision, Milpitas, Calif.) following the manufacturer's instructions.
# ACLY binding to PIP2 = assay: Phospho-ACLY bound to PIP2 (PIP2 immunoprecipitation and western blotting) in transfected HEK293T cells; format: cell-based, human; settings: ACLY-HA with active SRC kinase, 2 μM, 15 hours
# HL-60 AML cells = assay: MTT assay, growth of HL-60 AML cells; format: cell-based; settings: within 72 hours
# Method: HL-60 cells were treated with various concentrations of Bafetinib (Lyn kinase), BKM120 (PI3K) and BMS 303141 (ACLY) inhibitors in the presence of 10% RPMI media for 72 hours. The growth-inhibitory effect was examined using a […] assay (MTT; Sigma-Aldrich) as per the instructions of the manufactured kit. The experiment was performed in triplicate.
# [2] = ACLY peptide binding on PIP specificity plates; settings: PIP specificity plate, 20 pmols phosphoinositide per well, peptide 1.0 μg/ml
# Method: ACLY peptides: Based on PIP2 binding motif analysis on ACLY using full length protein sequence, two PIP2 binding domains were predicted. The ACLY peptide-1 in the ATP-grasp domain sequence (peptide-1: […]; SEQ ID NO:15) and the ACLY peptide-2, in the CoA-binding domain sequence (peptide-2: […]; SEQ ID NO:5). N-terminally biotinylated peptides were synthesized (Genscript, Inc). ACLY-PIP specificity binding assay was performed using the N-terminally biotinylated peptides at 1.0 μg/ml concentration in 1% goat serum in Tris buffer saline (TB S) and the Cova PIP Specificity plate H-6300 (Echelon Biosciences) according to manufactures instructions. In brief, ACLY peptide-1 and peptide-2 at final concentration of 1.0 μg/ml in 100 μl volume were incubated for overnight at 4° C. After three washes with TBST buffer, the wells were incubated with 100 μl of HRP-conjugated Biotin antibody, followed by three washes. The bound peptides were detected with Super-Signal ELISA-Pico chemiluminescent substrate kit from ThermoFisher and reading the absorbance at 450 nm for 3-30 minutes.
compound,measurement,setting,value
"Nc1cc(C(F)(F)F)c(-c2cc(N3CCOCC3)nc(N3CCOCC3)n2)cn1 [BKM120, Buparlisib]",levels of total PI/PIP/PIP2 compared to DMSO control,PI/PIP/PIP2,overall decrease
same,Histone H3 acetylation blocked (densitometric analysis),[1],97%
same,synthesis of Acetyl-CoA,Acetyl-CoA,significantly prevented
same,phospho-ACLY bound to PIP2 versus DMSO,ACLY binding to PIP2,significant difference
COc1ccc(-c2ccccc2)cc1NS(=O)(=O)c1cc(Cl)cc(Cl)c1O [BMS303141],IC50,HL-60 AML cells,10 to 20 µM
Cc1ccc(NC(=O)c2ccc(CN3CC[C@H](N(C)C)C3)c(C(F)(F)F)c2)cc1Nc1nccc(-c2cncnc2)n1 [Bafetinib],Histone H3 acetylation blocked (densitometric analysis),[1],90%
O=c1cc(N2CCOCC2)oc2c(-c3ccccc3)cccc12 [LY294002],Histone H3 acetylation blocked (densitometric analysis),[1],60%
ALTRKLIKKADQKGV (Biotin-ALTRKLIKKADQKGV) [ACLY peptide-2],"binding to PI(4,5)P2",[2],"binds to PI(4,5)P2"
